Reference: paper PMC4900628, “Critical Evaluation of P2X7 Receptor Antagonists in Selected Seizure Models” (PLoS ONE, 2016)
Where “and” joins values, the source holds several entries; their conditions need not be identical. Equal values may be shown once. Read-outs that look alike come from different tables or passages of the source.

Experiments:
human P2X7R = target: T1, human P2X7R (Homo sapiens, UniProt Q99572); test: fluorometric Ca2+ assay (ATP-induced [Ca2+]i response) in HEKhP2X7 cells; type: cell-based; settings: fluo-4, 1 mM ATP, read-out: Potency IC50 ± SEM, Human P2X7R
T1 construct: expressed in transfected cells
T1 sequence (Q99572 1-595): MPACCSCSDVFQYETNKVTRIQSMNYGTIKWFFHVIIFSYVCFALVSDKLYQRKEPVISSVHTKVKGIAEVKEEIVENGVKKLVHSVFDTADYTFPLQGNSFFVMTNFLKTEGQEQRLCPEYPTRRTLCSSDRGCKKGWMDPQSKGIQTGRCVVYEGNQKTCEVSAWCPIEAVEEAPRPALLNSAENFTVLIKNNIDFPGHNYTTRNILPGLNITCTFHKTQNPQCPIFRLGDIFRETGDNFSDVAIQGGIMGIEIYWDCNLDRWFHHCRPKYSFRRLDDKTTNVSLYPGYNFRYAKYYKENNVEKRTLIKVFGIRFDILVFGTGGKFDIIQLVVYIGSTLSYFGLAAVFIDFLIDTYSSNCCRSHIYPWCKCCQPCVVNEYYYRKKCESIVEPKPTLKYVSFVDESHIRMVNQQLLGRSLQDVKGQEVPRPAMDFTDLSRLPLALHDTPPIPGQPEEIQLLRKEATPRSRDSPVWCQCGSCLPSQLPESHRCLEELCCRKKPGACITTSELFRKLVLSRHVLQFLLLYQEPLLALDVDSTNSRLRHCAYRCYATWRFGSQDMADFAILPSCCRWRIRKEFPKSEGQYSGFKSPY
Protocol: Cells were grown in a humidified incubator at 37°C in an atmosphere supplemented with 5% CO2. […] HEK293mP2X7 were cultured in DMEM under similar conditions as described above, but containing 100 μg/ml zeocin (Invitrogen). […] Expression of the transgene was induced by supplementing the medium with 1 μg/ml tetracycline (Sigma-Aldrich, Taufkirchen, Germany) 24 h prior to the experiments. All fluorometric Ca^2+ assays in cell suspensions were performed in 384-microwell plates (Corning, No. 3655, Lowell, MA, USA) with a fluorescence-imaging microplate reader (POLARstar Omega, BMG Labtech, Offenburg, Germany) (for details, see [61, 68]). […] Microwell plates were repetitively scanned every 16 s in the fast scanning mode of the device. […] Data were normalized to the baseline values before ATP application (F/F0). […] ATP-solution was freshly prepared in Mg^2+-free HBS solution and adjusted to pH 7.4. Aliquots of stock solutions were stored at -20°C and freshly diluted with the appropriate HBS solution. […] Results are expressed as mean ± SEM. […] In the PTZ-T, the number of animals in the group with clonic seizures and the latency time were analysed using Fisher's exact probability test and the Mann-Whitney rank sum test, respectively. For multiple comparisons of the latency time a one-way ANOVA with the Holm-Sidak post hoc test was used. The influence of AFC on the plasma and brain concentrations of the antiepileptic drugs was statistical compared using the same procedure. In the PTZ-kindling model, the mean seizure stage within a group was calculated in relation to the number of PTZ-injections. Statistical comparison between vehicle- and compound-treated groups in this model was performed with two-way repeated measures ANOVA, followed by the Holm-Sidak post hoc test. […] In fully kindled rats, the calculated mean seizure stage within a group after vehicle- and compound-treatment were compared using a paired t-test. P < 0.05 was the accepted minimum level of significance.

[1] = Plasma and brain concentration in rats (after PTZ-kindling); type: in vivo; settings: for concentration at 45 min / Kp at 0.75 h: ip; for Kp at 0.75 h: 45 min
Protocol: One day after kindling procedure, selected rats (groups with n ≥ 5) were again pre-treated with the compounds of interest and sacrificed at the assumed peak times of brain concentration by CO2 inhalation. Blood was collected intracardially by heart centesis via glass pipettes supplemented with heparin-Na (ratiopharm, Ulm, Germany; 10μl of 5.000 I.U./ml) and separated by centrifuging (1500xg for 10 min) at 6–8°C. The plasma was stored at -20°C in plastic tubes. After blood sample collection, rats were decapitated and brains were quickly dissected. After removing the adherent blood by tissue paper and cutting off the cerebellum, the samples were fresh frozen using liquid nitrogen. Brain tissue was stored at -80°C and delivered to the different laboratories on dry ice. For mice (groups with n = 6), a similar procedure was used for the preparation of plasma and brain samples. In experiments in which AFC was co-administered with carbamazepine or ethosuximide, drug concentrations in plasma and brain were estimated to detect potential pharmacokinetic interactions.
Samples from experiments with AFC were analysed at the Lead Discovery Center (Dortmund, Germany). Briefly, AFC, carbamazepine and ethosuximide were extracted from plasma and homogenized brain by protein precipitation using acetonitrile. Resulting filtrates were analysed by liquid chromatography tandem-mass spectrometry (LC-MS/MS) using a Prominence UFLC system (Shimadzu, Duisburg, Germany) coupled to a QTrap 5500 instrument (ABSciex, Darmstadt, Germany). The compounds were separated on a Zorbax Eclipse Plus C18 column (Agilent Technologies, Santa Clara, CA, USA) with an acetonitrile/water gradient containing 0.1% formic acid as solvent. Chromatographic conditions and mass spectrometer parameters were optimized for each analyte. Plasma and brain concentrations of the compounds were calculated by means of a standard curve.
Plasma and brain samples from experiments with JNJ-47965567 were quantified at the Neuroscience Therapeutic Area, Janssen Research & Development (San Diego, CA, USA) using an API 4000 MS/MS system (Applied Biosystems, Concord, ON, Canada) interfaced with an Agilent 1100 Series HPLC (Agilent Technologies). To measure the percentage of P2X7R brain occupancy of JNJ-47965567, ex vivo receptor binding autography was performed as recently described. Briefly, 20 μm-thick hippocampal slices were prepared and P2X7R radioligand binding was determined at room temperature with 10 nM [^3H] JNJ-54232334 (Janssen) in 50 mM Tris-HCl incubation buffer containing 0.1% bovine serum albumin. The non-specific binding was measured using adjacent sections incubated in the additional presence of 100 μM A-740003 (Tocris Bioscience, Bristol UK). Sections were incubated for 1 min, washed in ice-cold incubation buffer (4 times, 5 min each), followed by two dips in deionized water and rapidly dry under a stream of cold air before acquisition. Quantitative analysis was performed using the Tracer ß-Imager with M3 Vision software (Biospace Lab, Paris, France). Ex vivo receptor labelling was expressed as the percentage of receptor labelling in corresponding brain areas of vehicle-treated control animals.

| SMILES | IC50 (human P2X7R) | mean brain concentration ([1]; 50 mg/kg i.p., 45 min before, n = 7) | concentration at 45 min ([1]; rat, brain, 50 mg/kg i.p., 45 min after injection, read-out: rat brain concentration) | Kp at 0.75 h ([1]; rat, brain, 50 mg/kg, 50 mg/kg i.p., read-out: brain to plasma ratio) | concentration at 45 min ([1]; rat, plasma, 50 mg/kg i.p., 45 min before, n = 7, read-out: mean blood plasma concentration) | mean brain concentration ([1]; 15 mg/kg s.c., 30 min before, n = 5, listed as JNJ, 15 mg/kg) | concentration at 30 min ([1]; rat, brain, sc, 15 mg/kg s.c., 30 min before, n = 5, read-out: mean brain concentration) | Kp at 0.5 h ([1]; rat, brain, sc, 15 mg/kg, 15 mg/kg s.c., 30 min, read-out: brain to plasma ratio) | concentration at 30 min ([1]; rat, plasma, sc, 15 mg/kg s.c., 30 min before, n = 5, read-out: mean blood plasma concentration) | mean brain concentration ([1]; 30 mg/kg i.p., 45 min before, n = 5) | concentration at 45 min ([1]; rat, brain, 30 mg/kg i.p., after 45 min, read-out: rat brain concentration) | Kp at 0.75 h ([1]; rat, brain, 30 mg/kg, 30 mg/kg i.p., read-out: brain to plasma ratio) | concentration at 45 min ([1]; rat, plasma, 30 mg/kg i.p., 45 min before, n = 5, read-out: mean blood plasma concentration) |
| --- | --- | --- | --- | --- | --- | --- | --- | --- | --- | --- | --- | --- | --- |
| CCOc1ccc(Nc2ccc(/C(=C3C=C/C(=[N+](/CC)Cc4cccc(S(=O)(=O)[O-])c4)C=C/3C)c3ccc(N(CC)Cc4cccc(S(=O)(=O)O)c4)cc3C)cc2)cc1 [Brilliant Blue G] | 980 ± 70 nM | 20 ± 2 nM | 20 nM | 0.01 | 1600 ± 300 nM | – | – | – | – | – | – | – | – |
| O=C(NCC1(N2CCN(c3ccccc3)CC2)CCOCC1)c1cccnc1Sc1ccccc1 [JNJ-47965567, N-[[4-(4-phenyl-piperazin-1-yl)tetrahydro-2H-pyran-4-yl]-methyl]-2-(phenyl-thio) nicotinamide] | 5 ± 0.5 nM | – | – | – | – | 5000 ± 1100 nM | 5000 nM | 1.2 | 4000 ± 1000 nM | – | – | – | – |
| Cc1c(S(=O)(=O)[O-])oc2c1C(=O)C(=O)c1c-2ccc2c1CCCC2(C)C.[Na+] [Tanshinone TIIAS, tanshinone IIS sulfonic sodium] | 300 nM and 310 nM | – | – | – | – | – | – | – | – | 500 ± 100 nM | 500 nM | 0.02 | 31100 ± 5900 nM |
